The assay has as its target T1, wild type FGFR-4 (Homo sapiens, UniProt P22455).
T1 construct: purchased Carna Biosciences, Inc
Put plainly: FGFR-4 wild type assay at Km (Caliper electrophoretic mobility shift). The class given is biochemical. The following applies: wild type FGFR-4, 400 uM ATP, 25 C, 90 minutes; read-out: INH-FGFR4. How it is done: Biochemical Activity Assessment In order to assess the activity of chemical compounds against the relevant kinase of interest, the Caliper LifeSciences electrophoretic mobility shift technology platform is utilized. Fluorescently labeled substrate peptide is incubated in the presence dosed levels of compounds, a set concentration of kinase and of ATP, so that a reflective proportion of the peptide is phosphorylated. At the end of the reaction, the mix of phosphorylated (product) and non-phosphorylated (substrate) peptides are passed through the microfluidic system of the Caliper LabChip® EZ Reader II, under an applied potential difference. The presence of the phosphate group on the product peptide provides a difference in mass and charge between the product peptide and the substrate peptide, resulting in a separation of the substrate and product pools in the sample. As the pools pass the LEDS within the instrument, these pools are detected and resolved as separate peaks. The ratio between these peaks therefore reflects the activity of the chemical matter at that concentration in that well, under those conditions.
FGFR-4 wild type assay at Km: In each well of a 384-well plate, 0.5 ng/ul of wild type FGFR-4 (Carna Biosciences, Inc.) was incubated in a total of 12.5 ul of buffer (100 mM HEPES pH 7.5, 0.015% Brij 35, 10 mM MgCl2, 1 mM DTT) with 1 uM CSKtide (5-FAM-KKKKEEIYFFFG-NH2) and 400 uM ATP at 25 C for 90 minutes in the presence or absence of a dosed concentration series of compound (1% DMSO final concentration). The reaction was stopped by the addition of 70 ul of Stop buffer (100 mM HEPES pH 7.5, 0.015% Brij 35, 35 mM EDTA and 0.2% of Coating Reagent 3 (Caliper Lifesciences)). The plate was then read on a Caliper LabChip® EZ Reader II (protocol settings: −1.9 psi, upstream voltage −700, downstream voltage −3000, post sample sip 35 s).

Each structure is given as a SMILES string.

T1 sequence (P22455 22-802): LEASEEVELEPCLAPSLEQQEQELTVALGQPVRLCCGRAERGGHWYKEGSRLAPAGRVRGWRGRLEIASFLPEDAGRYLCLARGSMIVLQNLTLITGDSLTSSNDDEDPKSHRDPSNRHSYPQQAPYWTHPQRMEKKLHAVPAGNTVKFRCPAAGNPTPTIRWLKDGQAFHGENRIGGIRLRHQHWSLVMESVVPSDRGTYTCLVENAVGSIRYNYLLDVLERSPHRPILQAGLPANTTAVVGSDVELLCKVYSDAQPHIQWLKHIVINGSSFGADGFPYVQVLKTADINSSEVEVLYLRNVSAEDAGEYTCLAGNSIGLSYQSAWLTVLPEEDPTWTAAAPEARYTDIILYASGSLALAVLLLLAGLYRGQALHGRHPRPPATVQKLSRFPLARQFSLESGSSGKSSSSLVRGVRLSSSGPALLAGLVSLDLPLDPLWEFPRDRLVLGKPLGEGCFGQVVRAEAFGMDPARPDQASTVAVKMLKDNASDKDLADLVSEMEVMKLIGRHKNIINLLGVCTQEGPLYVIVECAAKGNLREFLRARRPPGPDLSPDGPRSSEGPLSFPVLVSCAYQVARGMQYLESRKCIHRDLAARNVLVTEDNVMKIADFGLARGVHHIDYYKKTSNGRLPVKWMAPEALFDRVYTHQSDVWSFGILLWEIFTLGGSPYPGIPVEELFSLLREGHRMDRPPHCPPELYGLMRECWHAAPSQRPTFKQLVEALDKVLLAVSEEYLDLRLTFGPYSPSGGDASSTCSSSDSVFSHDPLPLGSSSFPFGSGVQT

Regarding `C=CC(=O)N[C@H]1CC[C@H](C(N)=O)C[C@H]1Nc1ncc2cc(-c3c(Cl)c(OC)cc(OC)c3Cl)ccc2n1` (racemic) [Compound 72], the IC50 fell in the range of 100 to 1000 nM.

Consider `C=CC(=O)N[C@H]1C[C@H](C(=O)N(C)C)CC[C@H]1Nc1ncc2cc(-c3c(Cl)c(OC)cc(OC)c3Cl)ccc2n1` (racemic) [Compound 87], for which the IC50 was 100 to 1000 nM. As for `C#CC(=O)N[C@H]1CCC[C@H]1Nc1ncc2cc(-c3cccnc3)ccc2n1` [Compound 1], the figure is above 1000 nM; as for `C#CC(=O)N[C@H]1CCC[C@H]1Nc1ncc2cc(-c3c(F)ccc(OC)c3F)ccc2n1` [Compound 2, N-((1S,2R)-2-((6-(2,6-difluoro-3-methoxyphenyl)quinazolin-2-yl)amino)cyclopentyl)propiolamide], 10 to 100 nM; as for `C#CC(=O)N[C@H]1CCC[C@H]1Nc1ncc2cc(-c3cc(C(N)=O)ccc3Cl)ccc2n1` [Compound 3], 100 to 1000 nM. Turning to `C#CC(=O)N[C@H]1CCC[C@H]1Nc1ncc2cc(-c3c(Cl)ccc(OC)c3F)ccc2n1` [Compound 4], the IC50 fell in the range of 10 to 100 nM. As for `C#CC(=O)N[C@H]1CCC[C@H]1Nc1ncc2cc(-c3c(Cl)ccc(OC)c3Cl)ccc2n1` [Compound 5], the figure is 10 to 100 nM; as for `C#CC(=O)N[C@H]1CCC[C@H]1Nc1ncc2cc(-c3c(F)ccc(OCC)c3Cl)ccc2n1` [Compound 6, N-((1S,2R)-2-((6-(2-chloro-3-ethoxy-6-fluorophenyl)quinazolin-2-yl)amino)cyclopentyl)propiolamide], 100 to 1000 nM. As for `C#CC(=O)N[C@H]1CCC[C@H]1Nc1ncc2cc(-c3cc(C(=O)NC4CC4)ccc3C)ccc2n1` [Compound 7], the figure is 10 to 100 nM; as for `C=CC(=O)N[C@H]1COCC1Nc1ncc2cc(-c3cc(OC)cc(OC)c3Cl)ccc2n1` (some centres unmarked) [Compound 8], 10 to 100 nM; as for `C=CC(=O)N[C@H]1CCC[C@H]1Nc1ncc2cc(-c3cc(C(=O)NC4CC4)ccc3C)ccc2n1` [Compound 9], 100 to 1000 nM. The figure for `C#CC(=O)N[C@H]1CCC[C@H]1Nc1ncc2cc(-c3cc(OC)cc(C(=O)NCC)c3)ccc2n1` [Compound 10] is above 1000 nM; for `C#CC(=O)N[C@H]1CCC[C@H]1Nc1ncc2cc(-c3cc(C(=O)NCC)ccc3Cl)ccc2n1` [Compound 11] it is 10 to 100 nM; for `C#CC(=O)N[C@H]1CCC[C@H]1Nc1ncc2cc(-c3cc(C(=O)NOC)ccc3Cl)ccc2n1` [Compound 12] it is below 10 nM.

For `C#CC(=O)NC1CCC1Nc1ncc2cc(-c3c(Cl)c(OC)cc(OC)c3Cl)ccc2n1` (centres unmarked) [Compound 14], the IC50 lay within 10 to 100 nM. As for `C=CC(=O)NC1CCC1Nc1ncc2cc(-c3c(Cl)c(OC)cc(OC)c3Cl)ccc2n1` (centres unmarked) [Compound 15], the figure is 100 to 1000 nM; as for `C#CC(=O)N[C@H]1CCC[C@H]1Nc1ncc2cc(-c3cc(C(=O)NC4CC4)ccc3Cl)ccc2n1` [Compound 16], 10 to 100 nM; as for `CCC(=O)N[C@H]1CCC[C@H]1Nc1ncc2cc(-c3cc(C(=O)NC4CC4)ccc3Cl)ccc2n1` [Compound 17], above 1000 nM.

For `C#CC(=O)N[C@H]1CCC[C@H]1Nc1ncc2cc(-c3cc(S(=O)(=O)N(C)C)ccc3C)ccc2n1` [Compound 18], the IC50 was above 1000 nM.

For the compound `C#CC(=O)N[C@H]1CCC[C@H]1Nc1ncc2cc(-c3cc(C(=O)NOC)c(F)cc3Cl)ccc2n1` [Compound 19], the IC50 lay in the range of 10 to 100 nM. With `C#CC(=O)N[C@H]1CCC[C@H]1Nc1ncc2cc(-c3c(Cl)c(OC)cc(OC)c3Cl)ccc2n1` [Compound 20], the IC50 was below 10 nM. Turning to `C=CC(=O)N[C@@H]1CCC[C@H]1Nc1ncc2cc(-c3c(Cl)c(OC)cc(OC)c3Cl)ccc2n1` [Compound 21], the IC50 was above 1000 nM. For `C=CC(=O)N[C@H]1CCC[C@@H]1Nc1ncc2cc(-c3c(Cl)c(OC)cc(OC)c3Cl)ccc2n1` [Compound 22], the IC50 was 100 to 1000 nM. As for `C=CC(=O)N[C@@H]1CCC[C@@H]1Nc1ncc2cc(-c3c(Cl)c(OC)cc(OC)c3Cl)ccc2n1` [Compound 23], the IC50 lay within 100 to 1000 nM. With `C=CC(=O)NC1CNCC1Nc1ncc2cc(-c3c(Cl)c(OC)cc(OC)c3Cl)ccc2n1` (centres unmarked) [Compound 25], the IC50 lay in the range of 10 to 100 nM. `C#CC(=O)N[C@H]1CCC[C@H]1Nc1ncc2cc(-c3cc(C(=O)NC4CC4)c(F)cc3Cl)ccc2n1` [Compound 30]: the IC50 is 10 to 100 nM. For `C#CC(=O)N[C@H]1CCCC[C@H]1Nc1ncc2cc(-c3c(Cl)c(OC)cc(OC)c3Cl)ccc2n1` [Compound 31], the IC50 is below 10 nM. As for `C=CC(=O)N[C@H]1CC(=O)C[C@H]1Nc1ncc2cc(-c3c(Cl)c(OC)cc(OC)c3Cl)ccc2n1` [Compound 33], the IC50 lay in the range of 10 to 100 nM. For `C=CC(=O)N[C@@H]1CCCC[C@@H]1Nc1ncc2cc(-c3c(Cl)c(OC)cc(OC)c3Cl)ccc2n1` [Compound 35], the IC50 was above 1000 nM.

As for `C=CC(=O)N[C@H]1CCCC[C@@H]1Nc1ncc2cc(-c3c(Cl)c(OC)cc(OC)c3Cl)ccc2n1` [Compound 36, N-((1S,2S)-2-((6-(2,6-dichloro-3,5-dimethoxyphenyl)quinazolin-2-yl)amino)cyclohexyl)acrylamide], the IC50 is above 1000 nM.

For the compound `C=CC(=O)N[C@@H]1CCCC[C@H]1Nc1ncc2cc(-c3c(Cl)c(OC)cc(OC)c3Cl)ccc2n1` [Compound 37], the IC50 is above 1000 nM. Regarding `C=CC(=O)N[C@H]1CCNC[C@H]1Nc1ncc2cc(-c3c(Cl)c(OC)cc(OC)c3Cl)ccc2n1` [Compound 38], the IC50 is 100 to 1000 nM. The figure for `C=CC(=O)N[C@@H]1CCNC[C@@H]1Nc1ncc2cc(-c3c(Cl)c(OC)cc(OC)c3Cl)ccc2n1` [Compound 39] is above 1000 nM; for `C=CC(=O)N[C@H]1C[C@@H](O)C[C@H]1Nc1ncc2cc(-c3c(Cl)c(OC)cc(OC)c3Cl)ccc2n1` [Compound 42] it is 10 to 100 nM; for `C=CC(=O)N[C@@H]1CCOC[C@@H]1Nc1ncc2cc(-c3c(Cl)c(OC)cc(OC)c3Cl)ccc2n1` [Compound 43] it is 100 to 1000 nM. The figure for `CC#CC(=O)N[C@H]1CCCC[C@H]1Nc1ncc2cc(-c3c(Cl)c(OC)cc(OC)c3Cl)ccc2n1` [Compound 47] is above 1000 nM. The figure for `C#CC(=O)N[C@H]1CCC[C@H]1Nc1ncc2cc(-c3c(Cl)c(OC)cc(OC)c3Cl)cc(OC)c2n1` [Compound 48] is below 10 nM; for `C#CC(=O)N[C@H]1CCC[C@H]1Nc1cc2c(cn1)cc(-c1c(Cl)c(OC)cc(OC)c1Cl)c(=O)n2C` [Compound 49] it is below 10 nM. Consider `C=CC(=O)N[C@H]1CCOC[C@H]1Nc1ncc2c(F)c(-c3c(Cl)c(OC)cc(OC)c3Cl)ccc2n1` [Compound 50], for which the IC50 is 10 to 100 nM. As for `C=CC(=O)N[C@H]1CCC[C@H]1Nc1ncc2cc(-c3c(Cl)c(OC)cc(OC)c3Cl)cc(Cl)c2n1` [Compound 53], the figure is 10 to 100 nM. Turning to `C=CC(=O)N[C@@H]1CN(C(C)=O)C[C@@H]1Nc1ncc2cc(-c3c(Cl)c(OC)cc(OC)c3Cl)ccc2n1` [Compound 57], the IC50 is 100 to 1000 nM. The figure for `C=CC(=O)N[C@@H]1CC(C)(C)OC[C@@H]1Nc1ncc2cc(-c3c(Cl)c(OC)cc(OC)c3Cl)ccc2n1` [Compound 59] is 100 to 1000 nM; for `C=CC(=O)N[C@H]1CC(C)(C)OC[C@H]1Nc1ncc2cc(-c3c(Cl)c(OC)cc(OC)c3Cl)ccc2n1` [Compound 60] it is above 1000 nM; for `C#CC(=O)N[C@H]1Cc2ccccc2[C@H]1Nc1ncc2cc(-c3c(Cl)c(OC)cc(OC)c3Cl)ccc2n1` [Compound 65] it is 100 to 1000 nM. Consider `C=CS(=O)(=O)N[C@H]1CCCC[C@H]1Nc1ncc2cc(-c3c(Cl)c(OC)cc(OC)c3Cl)ccc2n1` [Compound 66], for which the IC50 lay in the range of 10 to 100 nM.

Take `C=CC(=O)N[C@H]1CCOC[C@H]1Nc1ncc2cc(-c3c(Cl)c(OC)cc(OC)c3Cl)cc(Cl)c2n1` [Compound 67]: the IC50 is below 10 nM. Regarding `C#CC(=O)N[C@H]1CCCC[C@H]1Nc1cc2c(cn1)cc(-c1c(Cl)c(OC)cc(OC)c1Cl)c(=O)n2CC` [Compound 68], the IC50 is below 10 nM. As for `C=CC(=O)N[C@@H]1CCN(C(C)=O)C[C@@H]1Nc1ncc2cc(-c3c(Cl)c(OC)cc(OC)c3Cl)ccc2n1` [Compound 69], the figure is 100 to 1000 nM; as for `C=CC(=O)N[C@H]1CCN(C(C)=O)C[C@H]1Nc1ncc2cc(-c3c(Cl)c(OC)cc(OC)c3Cl)ccc2n1` [Compound 70], 100 to 1000 nM. Regarding `C=CC(=O)NC1CN(C(C)=O)CCC1Nc1ncc2cc(-c3c(Cl)c(OC)cc(OC)c3Cl)ccc2n1` (centres unmarked) [Compound 71], the IC50 fell in the range of 10 to 100 nM. For the compound `C=CC(=O)N[C@H]1C[C@@H](C(=O)OC)C[C@H]1Nc1ncc2cc(-c3c(Cl)c(OC)cc(OC)c3Cl)ccc2n1` [Compound 73], the IC50 was in the range of 10 to 100 nM. The figure for `C=CC(=O)N[C@H]1CCCC[C@H]1Nc1ncc2nc(-c3c(Cl)c(OC)cc(OC)c3Cl)c(=O)n(CC)c2n1` [Compound 78] is 100 to 1000 nM. As for `C=CC(=O)NC1CCS(=O)(=O)CC1Nc1ncc2cc(-c3c(Cl)c(OC)cc(OC)c3Cl)ccc2n1` (centres unmarked) [Compound 79], the figure is 10 to 100 nM.
